Structures are written as SMILES. Where only a bound is given, the exact number is not on record here.

The target in this experiment is skeletal myofibrils (myosin ATPase activity). Description: Skeletal Myofibril ATPase Assay. In kind it is biochemical. The conditions noted are these: PK-LDH coupled, absorbance at 340 nm. In short, it runs like this: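 Skeletal myofibril ATPase measured by PK-LDH-coupled NADH depletion at 340 nm, read every 1.5–2 min for 1 h; pCa buffer with PIPES/CaCl2/EGTA, pH 7.0. Rate taken as max–min absorbance, normalised to 1% DMSO vehicle (100%) and no change (0%); IC50 from four-parameter fit, bottom ≥0.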
Broadly, the IC50 is the midpoint of a concentration-inhibition curve. A low value points to higher potency. `Cc1coc(Cn2nc(-c3ccc(OC(F)F)cc3)ccc2=O)n1` [Compound 218, 6-(4-(difluoromethoxy)phenyl)-2-((4-methyloxazol-2-yl)methyl)pyridazin-3(2H)-one]: the IC50 was in the range of 10 to 100 µM. Under `Cc1cnc(Cn2nc(-c3ccc(OC(F)F)cc3)ccc2=O)[nH]1` [Compound 224, 6-(4-(difluoromethoxy)phenyl)-2-((5-methyl-1H-imidazol-2-yl)methyl)pyridazin-3(2H)-one] stands above 100 µM; under `CCOC(=O)c1cc(Cn2nc(-c3cnc(OCC(F)(F)F)nc3)ccc2=O)on1` [Compound 37, ethyl 5-((6-oxo-3-(2-(2,2,2-trifluoroethoxy)pyrimidin-5-yl)pyridazin-1(6H)-yl)methyl) isoxazole-3-carboxylate], below 10 µM. Under `CCOc1ccc(-c2ccc(=O)n(Cc3nc(-c4ccccn4)no3)n2)cc1` [Compound 304, 6-(4-ethoxyphenyl)-2-((3-(pyridin-2-yl)-1,2,4-oxadiazol-5-yl)methyl)pyridazin-3(2H)-one] stands below 10 µM; under `O=c1ccc(-c2ccc(OC(F)F)cc2)nn1Cc1nnc(C2CC2)[nH]1` [Compound 228, 2-((5-cyclopropyl-4H-1,2,4-triazol-3-yl)methyl)-6-(4-(difluoromethoxy)phenyl)-pyridazin-3(2H)-one], above 100 µM. With `O=c1ccc(-c2cnc(OCC(F)(F)F)nc2)nn1Cc1nc(-c2ccc(F)cc2)no1` [Compound 88, 2-((3-(4-fluorophenyl)-1,2,4-oxadiazol-5-yl)methyl)-6-(2-(2,2,2-trifluoroethoxy)pyrimidin-5-yl)pyridazine-3(2H)-one] the figure was below 10 µM; with `COc1ccc(-c2ccc(=O)n(Cc3nc(-c4ccccn4)no3)n2)cc1` [Compound 306, 6-(4-methoxyphenyl)-2-((3-(pyridin-2-yl)-1,2,4-oxadiazol-5-yl)methyl)pyridazin-3(2H)-one], 10 to 100 µM. Compound `O=c1ccc(-c2cnc(OCC(F)(F)F)nc2)nn1Cc1cc(-c2ccccn2)no1` [Compound 30, 2-((3-(pyridin-2-yl)isoxazol-5-yl)methyl)-6-(2-(2,2,2-trifluoroethoxy)pyrimidin-5-yl)pyridazin-3(2H)-one] yielded an IC50 below 10 µM. Compound `O=c1ccc(-c2ccc(OC(F)F)cc2)nn1Cc1nnc(-c2ccccc2)s1` [Compound 201, 6-(4-(difluoromethoxy)phenyl)-2-((5-phenyl-1,3,4-thiadiazol-2-yl)methyl)pyridazin-3(2H)-one] showed a 50% inhibitory concentration (IC50) below 10 µM.

For the compound `O=c1ccc(-c2ccc(OC(F)F)cc2)nn1Cc1nccn1CC(F)(F)F` [Compound 226, 6-(4-(difluoromethoxy)phenyl)-2-((1-(2,2,2-trifluoroethyl)-1H-imidazol-2-yl)methyl)pyridazin-3(2H)-one], the IC50 is above 100 µM. With `Cc1noc(Cn2nc(-c3cnc(OCC(F)(F)F)nc3)ccc2=O)c1C` [Compound 49, 2-((3,4-dimethylisoxazol-5-yl)methyl)-6-(2-(2,2,2-trifluoroethoxy)pyrimidin-5-yl)pyridazin-3(2H)-one] the figure was above 100 µM; with `O=c1ccc(-c2cnc(OCC3CC3)nc2)nn1Cc1cncc(F)c1` [Compound 119, 6-(2-(cyclopropylmethoxy)pyrimidin-5-yl)-2-((5-fluoropyridin-3-yl)methyl)pyridazine-3(2H)-one], below 10 µM; with `CSc1ncc(-c2ccc(=O)n(Cc3cc(C)no3)n2)cn1` [Compound 65, 2-((3-methylisoxazol-5-yl)methyl)-6-(2-(methylthio)pyrimidin-5-yl)pyridazine-3(2H)-one], below 10 µM. With `Cn1cc(Cn2nc(-c3cnc(OCC(F)(F)F)nc3)ccc2=O)cn1` [Compound 58, 2-((1-methyl-1H-pyrazol-4-yl)methyl)-6-(2-(2,2,2-trifluoroethoxy)pyrimidin-5-yl)pyridazin-3(2H)-one] the figure was below 10 µM. Under `N#Cc1cncc(Cn2nc(-c3ccc(OC(F)F)nc3)ccc2=O)c1` [Compound 57, 5-((3-(6-(difluoromethoxy)pyridin-3-yl)-6-oxopyridazin-1(6H)-yl)methyl)nicotinonitrile] stands 10 to 100 µM; under `CCc1cncc(Cn2nc(-c3cnc(OCC(F)(F)F)nc3)ccc2=O)c1` [Compound 137, 2-((5-ethylpyridin-3-yl)methyl)-6-(2-(2,2,2-trifluoroethoxy)pyrimidin-5-yl)pyridazine-3(2H)-one], below 10 µM; under `O=c1ccc(-c2cnc(OCC(F)(F)F)nc2)nn1Cc1cncc(F)n1` [Compound 118, 2-((6-fluoropyrazin-yl)methyl)-6-(2-(2,2,2-trifluoroethoxy)pyrimidin-5-yl)pyridazin-3(2H)-one], below 10 µM.

In the case of `CCCc1ncc(Cn2nc(-c3cnc(OCC(F)(F)F)nc3)ccc2=O)s1` [Compound 116, 2-((2-propylthiazol-5-yl)methyl)-6-(2-(2,2,2-trifluoroethoxy)pyrimidin-5-yl)pyridazine-3(2H)-one], the IC50 is below 10 µM. `O=c1ccc(-c2cnc(OCC(F)(F)F)nc2)nn1Cc1nnc(-c2cccnc2)s1` [Compound 40, 2-((5-(pyridin-3-yl)-1,3,4-thiadiazol-2-yl)methyl)-6-(2-(2,2,2-trifluoroethoxy)pyrimidin-5-yl)pyridazin-3(2H)-one] gave an IC50 below 10 µM. The compound `O=c1ccc(-c2cnc(OCC(F)(F)F)nc2)nn1Cc1nnc(-c2ccnc(O)c2)s1` [Compound 44, 2-((5-(2-hydroxypyridin-4-yl)-1,3,4-thiadiazol-2-yl)methyl)-6-(2-(2,2,2-trifluoroethoxy)pyrimidin-5-yl)pyridazin-3(2H)-one] showed a 50% inhibitory concentration (IC50) of 10 to 100 µM. Take `CC(C)c1ncc(Cn2nc(-c3cnc(OCC(F)(F)F)nc3)ccc2=O)s1` [Compound 114, 2-((2-isopropylthiazol-5-yl)methyl)-6-(2-(2,2,2-trifluoroethoxy)pyrimidin-5-yl)pyridazine-3(2H)-one]: the half-maximal inhibitory concentration (IC50) was below 10 µM. `Cc1cncc(Cn2nc(-c3cnc(OCC(F)(F)F)nc3)ccc2=O)c1` [Compound 101, 2-((5-methylpyridin-3-yl)methyl)-6-(2-(2,2,2-trifluoroethoxy)pyrimidin-5-yl)pyridazine-3(2H)-one] gave an IC50 below 10 µM. With `O=c1ccc(-c2cnc(OCC(F)(F)F)nc2)nn1Cc1cnccc1O` [Compound 78, 2-((4-hydroxypyridin-3-yl)methyl)-6-(2-(2,2,2-trifluoroethoxy)pyrimidin-5-yl)pyridazin-3(2H)-one], the 50% inhibitory concentration (IC50) is above 100 µM.

For the compound `COc1ccc(Cn2nc(-c3cnc(OCC(F)(F)F)nc3)ccc2=O)cn1` [Compound 132, 2-((6-methoxypyridin-3-yl)methyl)-6-(2-(2,2,2-trifluoroethoxy)pyrimidin-5-yl)pyridazine-3(2H)-one], the half-inhibitory concentration (IC50) is below 10 µM. Under `COc1ccc(-c2ccc(=O)n(Cc3cc(=O)n4ccccc4n3)n2)cc1` [Compound 307, 2-((3-(4-methoxyphenyl)-6-oxopyridazin-1(6H)-yl)methyl)-4H-pyrido[1.2-a]pyrimidin-4-one] stands 10 to 100 µM; under `O=c1ccc(-c2ccc(OC(F)F)cc2)nn1Cc1ncccn1` [Compound 232, 6-(4-(difluoromethoxy)phenyl)-2-(pyrimidin-2-ylmethyl)pyridazin-3(2H)-one], above 100 µM.

`O=c1ccc(-c2cnc(OCC(F)(F)F)nc2)nn1Cc1cc[n+]([O-])cc1` [Compound 81, 4-((6-oxo-3-(2-(2,2,2-trifluoroethoxy)pyrimidin-5-yl)pyridazin-1(6H)-yl)methyl)pyridine 1-oxide] registered a concentration for half-maximal inhibition (IC50) above 100 µM. Under `NC(=O)c1cc(Cn2nc(-c3cnc(OCC(F)(F)F)nc3)ccc2=O)on1` [Compound 32, 5-((6-oxo-3-(2-(2,2,2-trifluoroethoxy)pyrimidin-5-yl)pyridazin-1(6H)-yl)methyl)isoxazole-3-carboxamide] stands below 10 µM; under `O=c1ccc(-c2cnc(OCC(F)(F)F)nc2)nn1Cc1nnc(-c2ccc(O)nc2)s1` [Compound 45, 2-((5-(6-hydroxypyridin-3-yl)-1,3,4-thiadiazol-2-yl)methyl)-6-(2-(2,2,2-trifluoroethoxy)pyrimidi-5-yl)pyridazin-3(2H)-one], 10 to 100 µM; under `Cc1cc(Cn2nc(-c3ccc(OC(F)F)cc3)ccc2=O)on1` [Compound 204, 6-(4-(difluoromethoxy)phenyl)-2-((3-methylisoxazol-5-yl)methyl)pyridazine-3(2H)-one], below 10 µM. With `CC(C)Oc1ncc(-c2ccc(=O)n(Cc3cncc(F)c3)n2)cn1` [Compound 115, 2-((5-f1uoropyridin-3-yl)methyl)-6-(2-isopropoxypyrimidin-5-yl)pyridazine-3(2H)-one] the figure was below 10 µM; with `O=c1ccc(-c2cnc(OCC(F)(F)F)nc2)nn1Cc1cncc(F)c1` [Compound 6, 2-((5-fluoropyridin-3-yl)methyl)-6-(2-(2,2,2-trifluoroethoxy)pyrimidin-5-yl)pyridazine-3(2H)-one], below 10 µM. With `Cc1c(-c2ccccc2)noc1Cn1nc(-c2cnc(OCC(F)(F)F)nc2)ccc1=O` [Compound 39, 2-((4-methyl-3-phenylisoxazol-5-yl)methyl)-6-(2-(2,2,2-trifluoroethoxy)pyrimidin-5-yl)pyridazin-3(2H)-one] the figure was below 10 µM; with `Cc1cc(O)c(Cn2nc(-c3cnc(OCC(F)(F)F)nc3)ccc2=O)cn1` [Compound 86, 2-((4-hydroxy-6-methylpyridin-3-yl)methyl)-6-(2-(2,2,2-trifluoroethoxy)pyrimidin-5-yl)pyridazin-3(2H)-one], above 100 µM; with `O=c1ccc(-c2ccc(OC(F)F)cc2)nn1Cc1cc(C2CC2)no1` [Compound 206, 2-((3-cyclopropylisoxazol-5-yl)methyl)-6-(4-(difluoromethoxy)phenyl) pyridazine-3(2H)-one], below 10 µM.

Consider `CCc1ncc(Cn2nc(-c3cnc(OCC(F)(F)F)nc3)ccc2=O)s1` [Compound 99, 2-((2-ethylthiazol-5-yl)methyl)-6-(2-(2,2,2-trifluoroethoxy)pyrimidin-5-yl)pyridazine-3(2H)-one], for which the half-maximal inhibitory concentration (IC50) was below 10 µM.

The values are drawn from patent publication US11873290B2, “Pyridazinone compounds and uses thereof” (Edgewise Therapeutics, Inc., priority 2018, dated 2024).
